In ChEMBL document CHEMBL3044827, “Synthesis and in vitro anti-Helicobacter pylori activity of 2-[(chlorobenzyl)thio]-5-(5-nitro-2-furyl)-1,3,4-thiadiazoles” (2008):

Tests used:
Assay type in all cases: functional
Conditions in all cases: read-out: DIZ
Helicobacter pylori [1] = experiment: Antibacterial activity against Helicobacter pylori at 8 ug/disk after 3 to 5 days by paper disk diffusion method
Helicobacter pylori [2] = experiment: Antibacterial activity against Helicobacter pylori at 1 ug/disk after 3 to 5 days by paper disk diffusion method
Helicobacter pylori [3] = experiment: Antibacterial activity against metronidazole-resistant Helicobacter pylori at 16 ug/disk after 3 to 5 days by paper disk diffusion method
Helicobacter pylori [4] = experiment: Antibacterial activity against Helicobacter pylori at 0.5 ug/disk after 3 to 5 days by paper disk diffusion method
Helicobacter pylori [5] = experiment: Antibacterial activity against metronidazole-sensitive Helicobacter pylori at 32 ug/disk after 3 to 5 days by paper disk diffusion method
Helicobacter pylori [6] = experiment: Antibacterial activity against metronidazole-sensitive Helicobacter pylori at 8 ug/disk after 3 to 5 days by paper disk diffusion method
Helicobacter pylori [7] = experiment: Antibacterial activity against metronidazole-sensitive Helicobacter pylori at 16 ug/disk after 3 to 5 days by paper disk diffusion method
Helicobacter pylori [8] = experiment: Antibacterial activity against Helicobacter pylori at 32 ug/disk after 3 to 5 days by paper disk diffusion method
Helicobacter pylori [9] = experiment: Antibacterial activity against Helicobacter pylori at 2 ug/disk after 3 to 5 days by paper disk diffusion method
Helicobacter pylori [10] = experiment: Antibacterial activity against metronidazole-resistant Helicobacter pylori at 32 ug/disk after 3 to 5 days by paper disk diffusion method
Helicobacter pylori [11] = experiment: Antibacterial activity against metronidazole-resistant Helicobacter pylori at 8 ug/disk after 3 to 5 days by paper disk diffusion method
Helicobacter pylori [12] = experiment: Antibacterial activity against Helicobacter pylori at 4 ug/disk after 3 to 5 days by paper disk diffusion method
Helicobacter pylori [13] = experiment: Antibacterial activity against Helicobacter pylori at 16 ug/disk after 3 to 5 days by paper disk diffusion method

SMILES: O=[N+]([O-])c1ccc(-c2nnc(SCc3ccccc3)s2)o1
- zone of inhibition at 8 µg/disc (Helicobacter pylori [1]): 17.4 mm
- zone of inhibition at 1 µg/disc (Helicobacter pylori [2]): 9.6 mm
- zone of inhibition at 16 µg/disc (Helicobacter pylori [3]): 22 mm
- zone of inhibition at 0.5 µg/disc (Helicobacter pylori [4]): 6.7 mm
- zone of inhibition at 32 µg/disc (Helicobacter pylori [5]): 25 mm
- zone of inhibition at 8 µg/disc (Helicobacter pylori [6]): 18 mm
- zone of inhibition at 16 µg/disc (Helicobacter pylori [7]): 22 mm
- zone of inhibition at 32 µg/disc (Helicobacter pylori [8]): 24.1 mm
- zone of inhibition at 2 µg/disc (Helicobacter pylori [9]): 12.1 mm
- zone of inhibition at 32 µg/disc (Helicobacter pylori [10]): 25 mm
- zone of inhibition at 8 µg/disc (Helicobacter pylori [11]): 19 mm
- zone of inhibition at 4 µg/disc (Helicobacter pylori [12]): 14.7 mm
- zone of inhibition at 16 µg/disc (Helicobacter pylori [13]): 21 mm

SMILES: O=[N+]([O-])c1ccc(-c2nnc(SCc3ccccc3Cl)s2)o1
- zone of inhibition at 8 µg/disc (Helicobacter pylori [1]): 17.1 mm
- zone of inhibition at 1 µg/disc (Helicobacter pylori [2]): 8.3 mm
- zone of inhibition at 16 µg/disc (Helicobacter pylori [3]): 20 mm
- zone of inhibition at 0.5 µg/disc (Helicobacter pylori [4]): 6.8 mm
- zone of inhibition at 32 µg/disc (Helicobacter pylori [5]): 21 mm
- zone of inhibition at 8 µg/disc (Helicobacter pylori [6]): 19 mm
- zone of inhibition at 16 µg/disc (Helicobacter pylori [7]): 21 mm
- zone of inhibition at 32 µg/disc (Helicobacter pylori [8]): 21.4 mm
- zone of inhibition at 2 µg/disc (Helicobacter pylori [9]): 9.4 mm
- zone of inhibition at 32 µg/disc (Helicobacter pylori [10]): 22 mm
- zone of inhibition at 8 µg/disc (Helicobacter pylori [11]): 18 mm
- zone of inhibition at 4 µg/disc (Helicobacter pylori [12]): 11.3 mm
- zone of inhibition at 16 µg/disc (Helicobacter pylori [13]): 18.9 mm

SMILES: O=[N+]([O-])c1ccc(-c2nnc(SCc3cccc(Cl)c3)s2)o1
- zone of inhibition at 8 µg/disc (Helicobacter pylori [1]): 20.6 mm
- zone of inhibition at 1 µg/disc (Helicobacter pylori [2]): 13.1 mm
- zone of inhibition at 16 µg/disc (Helicobacter pylori [3]): 22 mm
- zone of inhibition at 0.5 µg/disc (Helicobacter pylori [4]): 10.3 mm
- zone of inhibition at 32 µg/disc (Helicobacter pylori [5]): 28 mm
- zone of inhibition at 8 µg/disc (Helicobacter pylori [6]): 21 mm
- zone of inhibition at 16 µg/disc (Helicobacter pylori [7]): 25 mm
- zone of inhibition at 32 µg/disc (Helicobacter pylori [8]): 25.8 mm
- zone of inhibition at 2 µg/disc (Helicobacter pylori [9]): 15.8 mm
- zone of inhibition at 32 µg/disc (Helicobacter pylori [10]): 25 mm
- zone of inhibition at 8 µg/disc (Helicobacter pylori [11]): 20 mm
- zone of inhibition at 4 µg/disc (Helicobacter pylori [12]): 18.4 mm
- zone of inhibition at 16 µg/disc (Helicobacter pylori [13]): 24.1 mm

SMILES: O=[N+]([O-])c1ccc(-c2nnc(SCc3ccc(Cl)cc3)s2)o1
- zone of inhibition at 16 µg/disc (Helicobacter pylori [3]): 17 mm
- zone of inhibition at 32 µg/disc (Helicobacter pylori [5]): 19 mm
- zone of inhibition at 8 µg/disc (Helicobacter pylori [6]): 6 mm
- zone of inhibition at 16 µg/disc (Helicobacter pylori [7]): 16 mm
- zone of inhibition at 32 µg/disc (Helicobacter pylori [10]): 17 mm
- zone of inhibition at 8 µg/disc (Helicobacter pylori [11]): 16 mm

SMILES: O=[N+]([O-])c1ccc(-c2nnc(SCc3ccc(Cl)cc3Cl)s2)o1
- zone of inhibition at 16 µg/disc (Helicobacter pylori [3]): 6 mm
- zone of inhibition at 32 µg/disc (Helicobacter pylori [5]): 15 mm
- zone of inhibition at 8 µg/disc (Helicobacter pylori [6]): 13 mm
- zone of inhibition at 16 µg/disc (Helicobacter pylori [7]): 15 mm
- zone of inhibition at 32 µg/disc (Helicobacter pylori [10]): 6 mm
- zone of inhibition at 8 µg/disc (Helicobacter pylori [11]): 6 mm

SMILES: O=[N+]([O-])c1ccc(-c2nnc(SCc3ccc(Cl)c(Cl)c3)s2)o1
- zone of inhibition at 16 µg/disc (Helicobacter pylori [3]): 6 mm
- zone of inhibition at 32 µg/disc (Helicobacter pylori [5]): 15 mm
- zone of inhibition at 8 µg/disc (Helicobacter pylori [6]): 11 mm
- zone of inhibition at 16 µg/disc (Helicobacter pylori [7]): 13 mm
- zone of inhibition at 32 µg/disc (Helicobacter pylori [10]): 12 mm
- zone of inhibition at 8 µg/disc (Helicobacter pylori [11]): 6 mm

SMILES: O=[N+]([O-])c1ccc(-c2nnc(SCc3cccc(Cl)c3Cl)s2)o1
- zone of inhibition at 16 µg/disc (Helicobacter pylori [3]): 6 mm
- zone of inhibition at 32 µg/disc (Helicobacter pylori [5]): 16 mm
- zone of inhibition at 8 µg/disc (Helicobacter pylori [6]): 15 mm
- zone of inhibition at 16 µg/disc (Helicobacter pylori [7]): 16 mm
- zone of inhibition at 32 µg/disc (Helicobacter pylori [10]): 17 mm
- zone of inhibition at 8 µg/disc (Helicobacter pylori [11]): 6 mm

SMILES: O=[N+]([O-])c1ccc(-c2nnc(SCc3c(Cl)cccc3Cl)s2)o1
- zone of inhibition at 8 µg/disc (Helicobacter pylori [1]): 19.4 mm
- zone of inhibition at 1 µg/disc (Helicobacter pylori [2]): 10.9 mm
- zone of inhibition at 16 µg/disc (Helicobacter pylori [3]): 21 mm
- zone of inhibition at 0.5 µg/disc (Helicobacter pylori [4]): 8.7 mm
- zone of inhibition at 32 µg/disc (Helicobacter pylori [5]): 26 mm
- zone of inhibition at 8 µg/disc (Helicobacter pylori [6]): 21 mm
- zone of inhibition at 16 µg/disc (Helicobacter pylori [7]): 23 mm
- zone of inhibition at 32 µg/disc (Helicobacter pylori [8]): 23.7 mm
- zone of inhibition at 2 µg/disc (Helicobacter pylori [9]): 13.1 mm
- zone of inhibition at 32 µg/disc (Helicobacter pylori [10]): 24 mm
- zone of inhibition at 8 µg/disc (Helicobacter pylori [11]): 20 mm
- zone of inhibition at 4 µg/disc (Helicobacter pylori [12]): 15.2 mm
- zone of inhibition at 16 µg/disc (Helicobacter pylori [13]): 21.9 mm

SMILES: CC1(C)S[C@@H]2[C@H](NC(=O)[C@H](N)c3ccc(O)cc3)C(=O)N2[C@H]1C(=O)O [AMOXICILLIN]
- zone of inhibition at 1 µg/disc (Helicobacter pylori [2]): 24.5 mm

SMILES: Cc1ncc([N+](=O)[O-])n1CCO [METRONIDAZOLE]
- zone of inhibition at 8 µg/disc (Helicobacter pylori [1]): 16.3 mm
